Laboratory results published in US11884671B2, “Purinone compounds and their use in treating cancer” (ASTRAZENECA AB, priority 2018, dated 2024).

Tests used:
TTK = TTK (Homo sapiens (Human), UniProt P33981); test: TTK enzyme assay (LanthaScreen Eu Kinase Binding); details: arithmetic mean of two or more experiments; for IC50: read-out: TTK enz pIC50 (converted)
Experimental: The inhibitory activity of compounds against TTK was determined in a LanthaScreen® Eu Kinase Binding assay run by ThermoFisher Scientific as part of their SelectScreen® Biochemical Kinase Profiling Service. The LanthaScreen® Eu Kinase Binding assay format uses binding of an Alexa Fluor® conjugate or “tracer” to a kinase, which is detected by addition of a Eu-labeled anti-tag antibody. […] The degree of FRET measured in the assay is used to determine the binding of a compound.
(§1) 10 point three-fold dilution compound concentration-response curves, with a top concentration of 10 μM were generated from 10 mM stocks of compound solubilised in DMSO. All assays were performed in white, low volume Greiner 384-well plates (cat. #784207, Greiner), in a total reaction volume of 16 μL and 1% (v/v) final DMSO concentration. […] Plates were then read using a fluorescence plate reader. IC50 values were calculated using XLfit software (IDBS Ltd, Surrey, UK), with the curve fit to model number 205 (sigmoidal dose-response model).

JAK1 = JAK1 (Homo sapiens (Human), UniProt P23458); test: JAK1 enzyme assay (Z'-LYTE); format: biochemical; details: 75 μM ATP, arithmetic mean of two or more experiments; for IC50: read-out: JAK1 enz pIC50 (converted)
Chain of JAK1 (P23458 whole entry): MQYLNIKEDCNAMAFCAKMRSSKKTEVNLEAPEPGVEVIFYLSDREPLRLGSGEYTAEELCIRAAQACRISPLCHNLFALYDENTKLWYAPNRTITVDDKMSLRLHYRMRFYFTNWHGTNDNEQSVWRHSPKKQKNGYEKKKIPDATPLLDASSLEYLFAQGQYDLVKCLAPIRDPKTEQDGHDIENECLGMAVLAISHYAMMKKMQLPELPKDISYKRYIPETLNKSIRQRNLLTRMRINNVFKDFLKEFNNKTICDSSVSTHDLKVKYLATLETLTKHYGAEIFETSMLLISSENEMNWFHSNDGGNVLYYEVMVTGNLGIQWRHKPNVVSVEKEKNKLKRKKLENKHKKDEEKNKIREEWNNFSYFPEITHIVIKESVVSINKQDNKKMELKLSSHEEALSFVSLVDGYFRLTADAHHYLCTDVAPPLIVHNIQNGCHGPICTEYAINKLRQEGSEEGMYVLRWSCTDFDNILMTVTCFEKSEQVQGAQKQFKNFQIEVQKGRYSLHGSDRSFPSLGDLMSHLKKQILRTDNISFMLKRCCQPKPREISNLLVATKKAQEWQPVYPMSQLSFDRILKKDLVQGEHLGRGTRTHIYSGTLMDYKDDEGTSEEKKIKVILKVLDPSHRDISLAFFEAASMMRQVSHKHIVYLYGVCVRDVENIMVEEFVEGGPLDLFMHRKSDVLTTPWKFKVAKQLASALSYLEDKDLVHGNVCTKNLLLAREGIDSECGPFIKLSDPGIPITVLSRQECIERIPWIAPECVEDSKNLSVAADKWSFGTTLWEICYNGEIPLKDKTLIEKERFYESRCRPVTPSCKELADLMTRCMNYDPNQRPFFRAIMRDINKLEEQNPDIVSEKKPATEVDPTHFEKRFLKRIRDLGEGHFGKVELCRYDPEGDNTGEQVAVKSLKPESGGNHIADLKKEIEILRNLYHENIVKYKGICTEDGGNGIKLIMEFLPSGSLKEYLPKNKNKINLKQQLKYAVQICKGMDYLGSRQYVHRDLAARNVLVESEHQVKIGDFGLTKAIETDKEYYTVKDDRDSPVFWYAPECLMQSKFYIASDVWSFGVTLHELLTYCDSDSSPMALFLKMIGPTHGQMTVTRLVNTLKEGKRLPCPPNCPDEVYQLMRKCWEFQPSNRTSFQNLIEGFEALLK
Experimental: (§2) The inhibitory activity of compounds against AURKA, AURKB, JAK1, JAK2 and JAK3 was determined in Z′-LYTE® assays run by ThermoFisher Scientific as part of their SelectScreen® Biochemical Kinase Profiling Service. The Z′-LYTE® biochemical assay format employs a fluorescence-based, coupled-enzyme format and is based on the differential sensitivity of phosphorylated and non-phosphorylated peptides to proteolytic cleavage. The peptide substrate is labeled with two fluorophores—one at each end—that make up a FRET pair. In the primary reaction, the kinase transfers the gamma-phosphate of ATP to a single tyrosine, serine or threonine residue in a synthetic FRET-peptide. In the secondary reaction, a site-specific protease recognises and cleaves non-phosphorylated FRET-peptides. Phosphorylation of FRET-peptides suppresses cleavage by the Development Reagent. Cleavage disrupts FRET between the donor (i.e., coumarin) and acceptor (i.e., fluorescein) fluorophores on the FRET-peptide, whereas uncleaved, phosphorylated FRET-peptides maintain FRET. A ratiometric method, which calculates the ratio (the Emission Ratio) of donor emission to acceptor emission after excitation of the donor fluorophore at 400 nm, is used to quantitate reaction progress. Both cleaved and uncleaved FRET-peptides contribute to the fluorescence signals and therefore to the Emission Ratio. The extent of phosphorylation of the FRET-peptide can be calculated from the Emission Ratio.
as §1, with “black, non-binding,” for “white,”, “Corning” for “Greiner”, “#4514, Corning),” for “#784207, Greiner),”, “10” for “16”, “The kinase reaction was” for “Plates were”, “quenched by the addition of 5 μL of Development Reagent (ThermoFisher Scientific proprietary). […]” for “read using a fluorescence plate reader.”
JAK1: The 2×JAK/Tyr 06 (ThermoFisher Scientific proprietary) mixture was prepared in 50 mM HEPES pH 6.5, 0.01% BRIJ-35, 10 mM MgCl2, 1 mM EGTA, 0.02% NaN3. […] After the 1 hour Kinase Reaction incubation, 5 μL of a 1:128 dilution of Development Reagent was added.

JAK2 = JAK2 (Homo sapiens (Human), UniProt O60674); test: JAK2 enzyme assay (Z'-LYTE); format: biochemical; details: 25 μM ATP, arithmetic mean of two or more experiments; for IC50: read-out: JAK2 enz pIC50 (converted)
Chain of JAK2 (O60674 whole entry): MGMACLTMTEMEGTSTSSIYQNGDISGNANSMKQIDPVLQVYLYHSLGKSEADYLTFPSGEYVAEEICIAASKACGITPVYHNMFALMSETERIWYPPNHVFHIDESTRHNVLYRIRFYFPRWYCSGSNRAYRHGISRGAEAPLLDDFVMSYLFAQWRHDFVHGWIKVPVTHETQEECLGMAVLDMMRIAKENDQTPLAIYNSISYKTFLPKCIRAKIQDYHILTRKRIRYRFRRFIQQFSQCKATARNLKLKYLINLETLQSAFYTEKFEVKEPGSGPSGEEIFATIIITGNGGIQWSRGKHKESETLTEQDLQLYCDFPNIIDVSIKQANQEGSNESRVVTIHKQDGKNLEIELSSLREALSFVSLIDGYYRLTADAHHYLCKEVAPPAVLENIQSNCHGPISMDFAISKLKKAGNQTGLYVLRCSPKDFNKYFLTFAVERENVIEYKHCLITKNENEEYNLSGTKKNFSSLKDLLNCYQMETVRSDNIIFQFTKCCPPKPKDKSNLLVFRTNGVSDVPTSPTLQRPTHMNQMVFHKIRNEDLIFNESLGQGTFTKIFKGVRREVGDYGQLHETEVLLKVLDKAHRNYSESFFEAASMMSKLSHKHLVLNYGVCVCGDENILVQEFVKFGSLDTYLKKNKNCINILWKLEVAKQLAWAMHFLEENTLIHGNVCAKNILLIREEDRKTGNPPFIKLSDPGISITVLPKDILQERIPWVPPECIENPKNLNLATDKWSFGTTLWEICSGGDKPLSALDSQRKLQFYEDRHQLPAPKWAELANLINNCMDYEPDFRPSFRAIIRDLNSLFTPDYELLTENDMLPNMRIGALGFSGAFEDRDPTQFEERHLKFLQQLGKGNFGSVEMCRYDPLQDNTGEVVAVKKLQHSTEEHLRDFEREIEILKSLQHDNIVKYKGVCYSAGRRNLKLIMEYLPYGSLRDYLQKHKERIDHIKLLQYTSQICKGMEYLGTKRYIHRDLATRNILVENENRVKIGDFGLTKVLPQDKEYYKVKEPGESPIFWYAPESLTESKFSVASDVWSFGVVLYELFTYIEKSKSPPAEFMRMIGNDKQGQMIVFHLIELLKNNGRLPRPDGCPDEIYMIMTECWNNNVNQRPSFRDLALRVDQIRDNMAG
Experimental: as §2
as §1, with “black, non-binding,” for “white,”, “Corning” for “Greiner”, “#4514, Corning),” for “#784207, Greiner),”, “10” for “16”, “The kinase reaction was” for “Plates were”, “quenched by the addition of 5 μL of Development Reagent (ThermoFisher Scientific proprietary). […]” for “read using a fluorescence plate reader.”
JAK2: The 2×JAK2/Tyr 06 (ThermoFisher Scientific proprietary) mixture was prepared in 50 mM HEPES pH 7.5, 0.01% BRIJ-35, 10 mM MgCl2, 1 mM EGTA. […] After the 1 hour Kinase Reaction incubation, 5 μL of a 1:128 dilution of Development Reagent was added.

JAK3 = JAK3 (Homo sapiens (Human), UniProt P52333); test: JAK3 enzyme assay (Z'-LYTE); format: biochemical; details: 10 μM ATP, arithmetic mean of two or more experiments; for IC50: read-out: JAK3 enz pIC50 (converted)
Chain of JAK3 (P52333 whole entry): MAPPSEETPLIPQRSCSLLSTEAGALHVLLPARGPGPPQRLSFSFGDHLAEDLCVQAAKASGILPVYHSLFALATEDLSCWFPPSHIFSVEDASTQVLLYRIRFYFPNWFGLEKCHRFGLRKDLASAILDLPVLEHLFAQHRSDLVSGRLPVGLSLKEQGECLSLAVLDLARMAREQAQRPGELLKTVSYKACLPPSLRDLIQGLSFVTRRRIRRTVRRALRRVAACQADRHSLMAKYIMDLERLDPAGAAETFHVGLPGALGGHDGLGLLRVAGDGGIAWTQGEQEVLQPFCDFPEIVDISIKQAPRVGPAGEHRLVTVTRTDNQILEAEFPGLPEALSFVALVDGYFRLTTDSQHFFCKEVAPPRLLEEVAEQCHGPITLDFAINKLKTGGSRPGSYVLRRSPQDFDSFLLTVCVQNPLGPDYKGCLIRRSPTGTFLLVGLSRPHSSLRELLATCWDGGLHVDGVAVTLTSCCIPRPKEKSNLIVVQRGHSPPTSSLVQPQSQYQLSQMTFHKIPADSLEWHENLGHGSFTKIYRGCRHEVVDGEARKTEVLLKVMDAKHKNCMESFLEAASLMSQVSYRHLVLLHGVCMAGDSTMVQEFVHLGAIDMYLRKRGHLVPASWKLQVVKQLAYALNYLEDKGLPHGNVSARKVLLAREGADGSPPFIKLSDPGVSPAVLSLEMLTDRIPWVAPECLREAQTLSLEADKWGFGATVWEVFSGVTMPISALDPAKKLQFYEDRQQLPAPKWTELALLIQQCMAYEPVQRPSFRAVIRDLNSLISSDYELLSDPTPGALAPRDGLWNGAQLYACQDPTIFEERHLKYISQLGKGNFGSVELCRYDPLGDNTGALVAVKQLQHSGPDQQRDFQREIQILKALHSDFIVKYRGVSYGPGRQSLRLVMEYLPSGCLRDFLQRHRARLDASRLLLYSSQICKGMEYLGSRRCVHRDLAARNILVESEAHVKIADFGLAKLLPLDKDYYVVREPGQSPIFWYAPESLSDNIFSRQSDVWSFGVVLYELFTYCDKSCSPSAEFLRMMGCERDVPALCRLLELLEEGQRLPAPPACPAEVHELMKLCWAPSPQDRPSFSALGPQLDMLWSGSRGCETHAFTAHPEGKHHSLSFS
Experimental: as §2
as §1, with “black, non-binding,” for “white,”, “Corning” for “Greiner”, “#4514, Corning),” for “#784207, Greiner),”, “10” for “16”, “The kinase reaction was” for “Plates were”, “quenched by the addition of 5 μL of Development Reagent (ThermoFisher Scientific proprietary). […]” for “read using a fluorescence plate reader.”
JAK3: The 2×JAK3/Tyr 06 (ThermoFisher Scientific proprietary) mixture was prepared in 50 mM HEPES pH 7.5. 0.01% BRIJ-35, 10 mM MgCl2, 1 mM EGTA. […] After the 1 hour Kinase Reaction incubation, 5 μL of a 1:128 dilution of Development Reagent was added.

AURKA (Aurora A) = AURKA (Aurora A) (Homo sapiens (Human), UniProt O14965); test: Aurora-A enzyme assay (Z'-LYTE); format: biochemical; details: 10 μM ATP, arithmetic mean of two or more experiments; for IC50: read-out: AurA enz pIC50 (converted)
Chain of AURKA (Aurora A) (O14965 whole entry): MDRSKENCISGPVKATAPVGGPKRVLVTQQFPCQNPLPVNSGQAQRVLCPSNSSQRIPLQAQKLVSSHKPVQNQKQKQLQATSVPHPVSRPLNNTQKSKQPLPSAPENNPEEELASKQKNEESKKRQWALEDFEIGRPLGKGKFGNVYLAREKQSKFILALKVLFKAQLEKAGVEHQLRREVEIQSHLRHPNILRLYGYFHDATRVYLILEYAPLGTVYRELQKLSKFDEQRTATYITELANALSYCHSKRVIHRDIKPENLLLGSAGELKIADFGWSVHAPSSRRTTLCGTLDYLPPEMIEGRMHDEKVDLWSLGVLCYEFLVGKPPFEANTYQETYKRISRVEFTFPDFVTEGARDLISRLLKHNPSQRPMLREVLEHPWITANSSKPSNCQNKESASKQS
Experimental: as §2
as §1, with “black, non-binding,” for “white,”, “Corning” for “Greiner”, “#4514, Corning),” for “#784207, Greiner),”, “10” for “16”, “The kinase reaction was” for “Plates were”, “quenched by the addition of 5 μL of Development Reagent (ThermoFisher Scientific proprietary). […]” for “read using a fluorescence plate reader.”
Aurora A (AurA): The 2×AURKA (Aurora A)/Ser/Thr 01 (ThermoFisher Scientific proprietary) mixture was prepared in 50 mM HEPES pH 7.5, 0.01% BRIJ-35, 10 mM MgCl2, 1 mM EGTA. […] After the 1 hour Kinase Reaction incubation, 5 μL of a 1:4096 dilution of Development Reagent was added.

AURKB (Aurora B) = AURKB (Aurora B) (Homo sapiens (Human), UniProt Q96GD4); test: Aurora-B enzyme assay (Z'-LYTE); format: biochemical; details: 75 μM ATP, arithmetic mean of two or more experiments; for IC50: read-out: AurB enz pIC50 (converted)
Chain of AURKB (Aurora B) (Q96GD4 whole entry): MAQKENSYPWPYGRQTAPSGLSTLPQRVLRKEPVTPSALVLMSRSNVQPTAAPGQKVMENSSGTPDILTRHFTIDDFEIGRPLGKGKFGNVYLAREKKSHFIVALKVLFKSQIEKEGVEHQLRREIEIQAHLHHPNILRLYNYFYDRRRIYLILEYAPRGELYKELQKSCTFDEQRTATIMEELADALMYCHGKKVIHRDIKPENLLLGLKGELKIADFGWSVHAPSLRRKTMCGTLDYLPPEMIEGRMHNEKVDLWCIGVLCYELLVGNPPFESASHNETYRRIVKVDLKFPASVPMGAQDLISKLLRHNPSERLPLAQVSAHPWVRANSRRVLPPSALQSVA
Experimental: as §2
as §1, with “black, non-binding,” for “white,”, “Corning” for “Greiner”, “#4514, Corning),” for “#784207, Greiner),”, “10” for “16”, “The kinase reaction was” for “Plates were”, “quenched by the addition of 5 μL of Development Reagent (ThermoFisher Scientific proprietary). […]” for “read using a fluorescence plate reader.”
Aurora B (AurB): The 2×AURKB (Aurora B)/Ser/Thr 01 (ThermoFisher Scientific proprietary) mixture was prepared in 50 mM HEPES pH 7.5, 0.01% BRIJ-35, 10 mM MgCl2, 1 mM EGTA. […] After the 1 hour Kinase Reaction incubation, 5 μL of a 1:4096 dilution of Development Reagent was added.

Chain of TTK (P33981 whole entry): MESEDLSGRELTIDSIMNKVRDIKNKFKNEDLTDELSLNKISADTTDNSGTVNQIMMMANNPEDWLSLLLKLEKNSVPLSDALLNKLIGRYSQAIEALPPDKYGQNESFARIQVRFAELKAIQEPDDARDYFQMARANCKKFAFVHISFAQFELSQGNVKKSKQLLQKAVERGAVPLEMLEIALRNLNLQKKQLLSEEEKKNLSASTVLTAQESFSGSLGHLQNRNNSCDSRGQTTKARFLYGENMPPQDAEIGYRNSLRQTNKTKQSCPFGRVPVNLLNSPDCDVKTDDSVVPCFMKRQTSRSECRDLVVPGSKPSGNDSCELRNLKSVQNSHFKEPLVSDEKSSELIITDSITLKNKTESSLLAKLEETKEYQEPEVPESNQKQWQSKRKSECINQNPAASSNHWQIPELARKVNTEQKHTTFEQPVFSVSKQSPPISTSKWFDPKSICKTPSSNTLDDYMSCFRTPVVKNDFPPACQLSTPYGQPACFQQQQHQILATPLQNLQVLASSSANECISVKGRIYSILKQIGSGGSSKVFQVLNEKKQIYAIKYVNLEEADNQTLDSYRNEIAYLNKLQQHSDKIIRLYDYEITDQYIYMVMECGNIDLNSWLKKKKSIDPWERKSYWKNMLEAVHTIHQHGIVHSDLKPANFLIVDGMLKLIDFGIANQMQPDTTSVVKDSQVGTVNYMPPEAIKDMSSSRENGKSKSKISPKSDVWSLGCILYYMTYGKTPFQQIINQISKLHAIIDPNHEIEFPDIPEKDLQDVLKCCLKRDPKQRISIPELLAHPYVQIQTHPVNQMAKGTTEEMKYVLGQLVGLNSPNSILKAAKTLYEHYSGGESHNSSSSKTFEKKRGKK

Structure (SMILES)	IC50 (TTK)	IC50 (JAK1)	IC50 (JAK2)	IC50 (JAK3)	IC50 (AURKA (Aurora A))	IC50 (AURKB (Aurora B))	TTK enz pIC50 (TTK)	JAK1 enz pIC50 (JAK1)	JAK2 enz pIC50 (JAK2)	JAK3 enz pIC50 (JAK3)	AurA enz pIC50 (AURKA (Aurora A))	AurB enz pIC50 (AURKB (Aurora B))
Cc1cc2ncccc2cc1Nc1ncc2c(n1)n([C@H]1CC[C@@H](O)CC1)c(=O)n2C [Example 11, 9-((1s,4s)-4-hydroxycyclohexyl)-7-methyl-2-((7-methylquinolin-6-yl)amino)-7,9-dihydro-8H-purin-8-one]	0.398 µM	> 10 µM	> 10 µM	> 10 µM	> 10 µM	> 10 µM						
Cc1cc2nccnc2cc1Nc1ncc2c(n1)n([C@]1(C)CC[C@H](O)CC1)c(=O)n2C [Example 20, 9-((1s,4s)-4-hydroxy-1-methylcyclohexyl)-7-methyl-2-((7-methylquinoxalin-6-yl)amino)-7,9-dihydro-8H-purin-8-one]							6.4	<5	<5	<5	<5	<5
Cc1cc2ncccc2cc1Nc1ncc2c(n1)n(C1CCS(=O)(=O)CC1)c(=O)n2C [Example 35, 9-(1,1-dioxidotetrahydro-2H-thiopyran-4-yl)-7-methyl-2-((7-methylquinolin-6-yl)amino)-7,9-dihydro-8H-purin-8-one]							5.9	<5	<5	5.2	<5	<5
COCCN1CCC(n2c(=O)n(C)c3cnc(Nc4cc5cccnc5cc4C)nc32)CC1 [Example 49, 9-(1-(2-methoxyethyl)piperidin-4-yl)-7-methyl-2-((7-methylquinolin-6-yl)amino)-7,9-dihydro-8H-purin-8-one]							5.7	<5	<5	<5	<5	<5
Cc1cc2ncccc2cc1Nc1ncc2c(n1)n([C@@H]1CCNC[C@@H]1F)c(=O)n2C [Example 38, 9-((3S,4R)-3-fluoropiperidin-4-yl)-7-methyl-2-((7-methylquinolin-6-yl)amino)-7,9-dihydro-8H-purin-8-one]							<5.1	<5	<5	<5	<5	<5
Cc1cc2nccnc2cc1Nc1ncc2c(n1)n([C@H]1CCCOC1)c(=O)n2C [Example 28, (S)-7-methyl-2-((7-methylquinoxalin-6-yl)amino)-9-(tetrahydro-2H-pyran-3-yl)-7,9-dihydro-8H-purin-8-one]							6.1	<5	<5	<5	5.3	<5
Cc1cc2ncccc2cc1Nc1ncc2c(n1)n([C@H]1CC[C@](C)(N)CC1)c(=O)n2C [Example 40, 9-((1r,4r)-4-amino-4-methylcyclohexyl)-7-methyl-2-((7-methylquinolin-6-yl)amino)-7,9-dihydro-8H-purin-8-one]	1.58 µM	> 10 µM	> 10 µM	> 7.94 µM	> 10 µM	> 10 µM						
Cc1cc2ncccc2cc1Nc1ncc2c(n1)n([C@H]1CC[C@H](O)CC1)c(=O)n2C [Example 6, 9-((1r,4r)-4-hydroxycyclohexyl)-7-methyl-2-((7-methylquinolin-6-yl)amino)-7,9-dihydro-8H-purin-8-one]							7.2	<5	<5	<5	<5	<5
Cc1cc2ncccc2cc1Nc1ncc2c(n1)n(C1CCN(C3COC3)CC1)c(=O)n2C [Example 47, 7-methyl-2-((7-methylquinolin-6-yl)amino)-9-(1-(oxetan-3-yl)piperidin-4-yl)-7,9-dihydro-8H-purin-8-one]							5.8	<5	<5	<5	<5	<5
CC(=O)N1CCC(n2c(=O)n(C)c3cnc(Nc4cc5ncc(C)nc5cc4C)nc32)CC1 [Example 4, 9-(1-acetylpiperidin-4-yl)-2-((2,7-dimethylquinoxalin-6-yl)amino)-7-methyl-7,9-dihydro-8H-purin-8-one]							6.0	<5	<5	<5	<5	<5
Cc1cc2nccc(C)c2cc1Nc1ncc2c(n1)n([C@H]1CC[C@H](O)CC1)c(=O)n2C [Example 8, 2-((4,7-dimethylquinolin-6-yl)amino)-9-((1r,4r)-4-hydroxycyclohexyl)-7-methyl-7,9-dihydro-8H-purin-8-one]	0.631 µM	> 10 µM	> 10 µM	> 10 µM	> 10 µM	> 10 µM						
Cc1cc2nnccc2cc1Nc1ncc2c(n1)n([C@@H]1CCCOC1)c(=O)n2C [Example 25, (R)-7-methyl-2-((7-methylcinnolin-6-yl)amino)-9-(tetrahydro-2H-pyran-3-yl)-7,9-dihydro-8H-purin-8-one]							6.2	<5	<5	<5	<5	<5
Cc1cc2nnccc2cc1Nc1ncc2c(n1)n([C@@H]1CCOC1)c(=O)n2C [Example 23, (R)-7-methyl-2-((7-methylcinnolin-6-yl)amino)-9-(tetrahydrofuran-3-yl)-7,9-dihydro-8H-purin-8-one]							5.9	<5	<5	<5	<5	<5
